Measured values reported in PubChem BioAssay (NCI).
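Assay format: 96-well plates, 48-hour exposure. Abbreviation: GI50, concentration required for 50% inhibition of growth. TGI marks complete inhibition of growth.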

Tests used:
Experiment in all cases: NCI-60 cell line screen, 48 h
U251 CNS = test system: U251 CNS
A498 renal = test system: A498 renal
SNB-19 CNS = test system: SNB-19 CNS
OVCAR-3 ovarian = test system: OVCAR-3 ovarian
EKVX NSCLC = test system: EKVX NSCLC
TK-10 renal = test system: TK-10 renal
A549 NSCLC = test system: A549 NSCLC
HS 578T breast = test system: HS 578T breast
CAKI-1 renal = test system: CAKI-1 renal
UO-31 renal = test system: UO-31 renal
OVCAR-4 ovarian = test system: OVCAR-4 ovarian
ACHN renal = test system: ACHN renal
PC-3 prostate = test system: PC-3 prostate
MALME-3M melanoma = test system: MALME-3M melanoma
UACC-257 melanoma = test system: UACC-257 melanoma
COLO 205 colon = test system: COLO 205 colon
SF-539 CNS = test system: SF-539 CNS
MOLT-4 leukemia = test system: MOLT-4 leukemia
SF-295 CNS = test system: SF-295 CNS
MDA-MB-231 breast = test system: MDA-MB-231 breast
IGROV1 ovarian = test system: IGROV1 ovarian
786-0 renal = test system: 786-0 renal
SK-MEL-5 melanoma = test system: SK-MEL-5 melanoma
HCT-15 colon = test system: HCT-15 colon
MCF7 breast = test system: MCF7 breast
NCI-H23 lung = test system: NCI-H23 lung
K-562 leukemia = test system: K-562 leukemia
SK-OV-3 ovarian = test system: SK-OV-3 ovarian
OVCAR-5 ovarian = test system: OVCAR-5 ovarian
NCI-H226 lung = test system: NCI-H226 lung
SN12C renal = test system: SN12C renal
HT29 colon = test system: HT29 colon
HOP-92 NSCLC = test system: HOP-92 NSCLC
NCI/ADR-RES ovarian = test system: NCI/ADR-RES ovarian
HL-60(TB) leukemia = test system: HL-60(TB) leukemia
SR leukemia = test system: SR leukemia
RXF 393 renal = test system: RXF 393 renal
HCT-116 colon = test system: HCT-116 colon
M14 melanoma = test system: M14 melanoma
SK-MEL-28 melanoma = test system: SK-MEL-28 melanoma
SNB-75 CNS = test system: SNB-75 CNS
T-47D breast = test system: T-47D breast
SW-620 colon = test system: SW-620 colon
UACC-62 melanoma = test system: UACC-62 melanoma
DU-145 prostate = test system: DU-145 prostate
KM12 colon = test system: KM12 colon
HOP-62 NSCLC = test system: HOP-62 NSCLC
NCI-H522 lung = test system: NCI-H522 lung
RPMI-8226 leukemia = test system: RPMI-8226 leukemia
NCI-H460 lung = test system: NCI-H460 lung
SF-268 CNS = test system: SF-268 CNS
MDA-MB-435 = test system: MDA-MB-435
OVCAR-8 ovarian = test system: OVCAR-8 ovarian
SK-MEL-2 melanoma = test system: SK-MEL-2 melanoma
LOX IMVI melanoma = test system: LOX IMVI melanoma
CCRF-CEM leukemia = test system: CCRF-CEM leukemia
BT-549 breast = test system: BT-549 breast
HCC-2998 colon = test system: HCC-2998 colon

COc1ccc(C(=O)/C=C/SC(=NC#N)SC)cc1
TGI (U251 CNS): 37.9 µM
TGI (A498 renal): 60.7 µM
TGI (SNB-19 CNS): 35.2 µM
TGI (OVCAR-3 ovarian): 37.2 µM
TGI (EKVX NSCLC): > 100 µM
TGI (TK-10 renal): 42.2 µM
TGI (A549 NSCLC): > 100 µM
TGI (HS 578T breast): 68.3 µM
TGI (CAKI-1 renal): 54.8 µM
TGI (UO-31 renal): 37.4 µM
TGI (OVCAR-4 ovarian): > 100 µM
TGI (ACHN renal): 46.7 µM
TGI (PC-3 prostate): > 100 µM
TGI (MALME-3M melanoma): 50.3 µM
TGI (UACC-257 melanoma): 40.5 µM
TGI (COLO 205 colon): 38.8 µM
TGI (SF-539 CNS): 45.7 µM
TGI (MOLT-4 leukemia): 58 µM
TGI (SF-295 CNS): 76 µM
TGI (MDA-MB-231 breast): 33.2 µM
TGI (IGROV1 ovarian): 57.3 µM
TGI (786-0 renal): 38.8 µM
TGI (SK-MEL-5 melanoma): 39 µM
TGI (HCT-15 colon): 28.8 µM
TGI (MCF7 breast): 38.2 µM
TGI (NCI-H23 lung): 33.2 µM
TGI (K-562 leukemia): > 100 µM
TGI (SK-OV-3 ovarian): 47.5 µM
TGI (OVCAR-5 ovarian): 47.1 µM
TGI (NCI-H226 lung): 43.5 µM
TGI (SN12C renal): 75.2 µM
TGI (HT29 colon): 49.5 µM
TGI (HOP-92 NSCLC): > 100 µM
TGI (NCI/ADR-RES ovarian): 42.3 µM
TGI (HL-60(TB) leukemia): > 100 µM
TGI (SR leukemia): 19.6 µM
TGI (RXF 393 renal): 35.1 µM
TGI (HCT-116 colon): 28.1 µM
TGI (M14 melanoma): 35.1 µM
TGI (SK-MEL-28 melanoma): 96.7 µM
TGI (SNB-75 CNS): 89.2 µM
TGI (T-47D breast): 47.3 µM
TGI (SW-620 colon): 48.3 µM
TGI (UACC-62 melanoma): 43.8 µM
TGI (DU-145 prostate): 53.5 µM
TGI (KM12 colon): 63.9 µM
TGI (HOP-62 NSCLC): 44.1 µM
TGI (NCI-H522 lung): 37.1 µM
TGI (RPMI-8226 leukemia): > 100 µM
TGI (NCI-H460 lung): > 100 µM
TGI (SF-268 CNS): 70.3 µM
TGI (MDA-MB-435): 49.2 µM
TGI (OVCAR-8 ovarian): 46.8 µM
TGI (SK-MEL-2 melanoma): 43.8 µM

O=C1c2cc3c(cc2-c2c1c1ccc(Cl)cc1c(=O)n2CCCn1ccnc1)OCO3
GI50 (U251 CNS): < 0.01 µM
TGI (U251 CNS): 11.3 µM
GI50 (A498 renal): 0.025 µM
GI50 (OVCAR-3 ovarian): 0.0396 µM
TGI (OVCAR-3 ovarian): 1.4 µM
GI50 (EKVX NSCLC): 0.117 µM
TGI (EKVX NSCLC): > 100 µM
GI50 (TK-10 renal): 0.54 µM
TGI (TK-10 renal): > 100 µM
GI50 (A549 NSCLC): 0.0136 µM
TGI (A549 NSCLC): > 100 µM
GI50 (HS 578T breast): 1.54 µM
TGI (HS 578T breast): > 100 µM
GI50 (CAKI-1 renal): < 0.01 µM
TGI (CAKI-1 renal): > 100 µM
GI50 (UO-31 renal): < 0.01 µM
TGI (UO-31 renal): > 100 µM
GI50 (LOX IMVI melanoma): < 0.01 µM
TGI (LOX IMVI melanoma): 0.0297 µM
GI50 (OVCAR-4 ovarian): 0.0525 µM
TGI (OVCAR-4 ovarian): > 100 µM
GI50 (ACHN renal): < 0.01 µM
TGI (ACHN renal): 1.09 µM
GI50 (PC-3 prostate): 0.0438 µM
TGI (PC-3 prostate): > 100 µM
GI50 (MALME-3M melanoma): 0.0647 µM
TGI (MALME-3M melanoma): > 100 µM
GI50 (UACC-257 melanoma): 0.0584 µM
TGI (UACC-257 melanoma): > 100 µM
GI50 (COLO 205 colon): 0.0552 µM
TGI (COLO 205 colon): > 100 µM
GI50 (SF-539 CNS): < 0.01 µM
TGI (SF-539 CNS): 0.0649 µM
GI50 (MOLT-4 leukemia): < 0.01 µM
TGI (MOLT-4 leukemia): 1.17 µM
GI50 (SF-295 CNS): < 0.01 µM
TGI (SF-295 CNS): 10 µM
GI50 (MDA-MB-231 breast): 0.959 µM
TGI (MDA-MB-231 breast): > 100 µM
GI50 (IGROV1 ovarian): 0.0656 µM
TGI (IGROV1 ovarian): > 100 µM
GI50 (HCT-15 colon): 0.0431 µM
TGI (HCT-15 colon): > 100 µM
GI50 (CCRF-CEM leukemia): < 0.01 µM
TGI (CCRF-CEM leukemia): 10.5 µM
GI50 (NCI-H23 lung): < 0.01 µM
TGI (NCI-H23 lung): 0.317 µM
GI50 (K-562 leukemia): 0.0229 µM
TGI (K-562 leukemia): 12.6 µM
GI50 (SK-OV-3 ovarian): < 0.01 µM
TGI (SK-OV-3 ovarian): 26.6 µM
GI50 (OVCAR-5 ovarian): 0.0448 µM
TGI (OVCAR-5 ovarian): 49 µM
GI50 (NCI-H226 lung): 0.0186 µM
TGI (NCI-H226 lung): > 100 µM
GI50 (SN12C renal): < 0.01 µM
TGI (SN12C renal): > 100 µM
GI50 (HT29 colon): 0.0174 µM
TGI (HT29 colon): > 100 µM
GI50 (HOP-92 NSCLC): 0.0229 µM
TGI (HOP-92 NSCLC): 0.491 µM
GI50 (NCI/ADR-RES ovarian): < 0.01 µM
TGI (NCI/ADR-RES ovarian): 15.2 µM
GI50 (HL-60(TB) leukemia): < 0.01 µM
TGI (HL-60(TB) leukemia): 1.93 µM
GI50 (SR leukemia): < 0.01 µM
TGI (SR leukemia): 0.0677 µM
GI50 (BT-549 breast): 0.0491 µM
TGI (BT-549 breast): > 100 µM
GI50 (HCC-2998 colon): 0.0737 µM
TGI (HCC-2998 colon): > 100 µM
GI50 (RXF 393 renal): < 0.01 µM
TGI (RXF 393 renal): 0.0518 µM
GI50 (HCT-116 colon): < 0.01 µM
TGI (HCT-116 colon): 11 µM
GI50 (M14 melanoma): < 0.01 µM
TGI (M14 melanoma): 11.9 µM
GI50 (SK-MEL-28 melanoma): 0.158 µM
TGI (SK-MEL-28 melanoma): > 100 µM
GI50 (SNB-75 CNS): 0.0107 µM
TGI (SNB-75 CNS): 4.14 µM
GI50 (T-47D breast): < 0.01 µM
TGI (T-47D breast): > 100 µM
GI50 (SW-620 colon): < 0.01 µM
TGI (SW-620 colon): > 100 µM
GI50 (UACC-62 melanoma): < 0.01 µM
TGI (UACC-62 melanoma): 0.0296 µM
GI50 (DU-145 prostate): < 0.01 µM
TGI (DU-145 prostate): 0.282 µM
GI50 (HOP-62 NSCLC): < 0.01 µM
TGI (HOP-62 NSCLC): > 100 µM
GI50 (NCI-H522 lung): 0.0182 µM
TGI (NCI-H522 lung): 30.7 µM
GI50 (RPMI-8226 leukemia): 0.0215 µM
TGI (RPMI-8226 leukemia): 0.546 µM
GI50 (NCI-H460 lung): < 0.01 µM
TGI (NCI-H460 lung): 10.3 µM
GI50 (SF-268 CNS): < 0.01 µM
TGI (SF-268 CNS): > 100 µM
GI50 (OVCAR-8 ovarian): 0.0116 µM
TGI (OVCAR-8 ovarian): > 100 µM
GI50 (SK-MEL-2 melanoma): 0.649 µM
TGI (SK-MEL-2 melanoma): > 100 µM

Cc1cn(S(=O)(=O)c2ccccc2)c2c(OCc3ccccc3)cc(NC(=O)c3cc4cc([N+](=O)[O-])ccc4s3)cc12
TGI (EKVX NSCLC): > 100 µM
TGI (TK-10 renal): > 100 µM
TGI (A549 NSCLC): > 100 µM
TGI (HS 578T breast): > 100 µM
TGI (CAKI-1 renal): > 100 µM
TGI (UO-31 renal): > 100 µM
TGI (LOX IMVI melanoma): > 100 µM
TGI (OVCAR-4 ovarian): > 100 µM
TGI (ACHN renal): > 100 µM
TGI (MALME-3M melanoma): > 100 µM
TGI (COLO 205 colon): > 100 µM
TGI (MOLT-4 leukemia): > 100 µM
TGI (SF-295 CNS): > 100 µM
TGI (MDA-MB-231 breast): > 100 µM
TGI (IGROV1 ovarian): > 100 µM
TGI (SK-MEL-5 melanoma): > 100 µM
TGI (HCT-15 colon): > 100 µM
TGI (CCRF-CEM leukemia): > 100 µM
TGI (NCI-H23 lung): > 100 µM
TGI (SK-OV-3 ovarian): > 100 µM
TGI (OVCAR-5 ovarian): > 100 µM
TGI (NCI/ADR-RES ovarian): > 100 µM
TGI (HL-60(TB) leukemia): > 100 µM
TGI (BT-549 breast): > 100 µM
TGI (HCC-2998 colon): > 100 µM
TGI (RXF 393 renal): > 100 µM
TGI (M14 melanoma): > 100 µM
TGI (SK-MEL-28 melanoma): > 100 µM
TGI (SNB-75 CNS): > 100 µM
TGI (SW-620 colon): > 100 µM
TGI (DU-145 prostate): > 100 µM
TGI (HOP-62 NSCLC): > 100 µM
TGI (NCI-H522 lung): > 100 µM
TGI (RPMI-8226 leukemia): > 100 µM
TGI (NCI-H460 lung): > 100 µM
TGI (OVCAR-8 ovarian): > 100 µM
